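Method: 48-hour compound exposure of cells in 96-well plates, five concentrations, linear interpolation of endpoints. GI50: concentration for 50% inhibition of growth.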 Calls of active or inactive are those of the source. Rule as the data show it: active = GI50 up to about 1.1 µM and inactive = higher.
How the values were obtained:
Experiment in all cases: NCI tumour cell line growth inhibition, 48 h
786-0 = system: 786-0
A549 = system: A549
ACHN = system: ACHN
CAKI-1 = system: CAKI-1
CCRF-CEM = system: CCRF-CEM
COLO 205 = system: COLO 205
DLD-1 = system: DLD-1
DMS-114 = system: DMS-114
DMS-273 = system: DMS-273
EKVX = system: EKVX
HCC 2998 = system: HCC 2998
HCT-116 = system: HCT-116
HCT-15 = system: HCT-15
HL-60 = system: HL-60
HOP-18 = system: HOP-18
HOP-62 = system: HOP-62
HT-29 = system: HT-29
IGROV-1 = system: IGROV-1
K562 = system: K562
KM-20L2 = system: KM-20L2
KM12 = system: KM12
LOX IMVI = system: LOX IMVI
LXFL 529 = system: LXFL 529
M14 = system: M14
M19-MEL = system: M19-MEL
MOLT-4 = system: MOLT-4
Malme-3M = system: Malme-3M
NCI-H226 = system: NCI-H226
NCI-H23 = system: NCI-H23
NCI-H460 = system: NCI-H460
NCI-H522 = system: NCI-H522
OVCAR-3 = system: OVCAR-3
OVCAR-4 = system: OVCAR-4
OVCAR-8 = system: OVCAR-8
RPMI-8226 = system: RPMI-8226
RXF 393 = system: RXF 393
SF-268 = system: SF-268
SF-295 = system: SF-295
SF-539 = system: SF-539
SK-MEL-28 = system: SK-MEL-28
SK-MEL-2 = system: SK-MEL-2
SK-MEL-5 = system: SK-MEL-5
SK-OV-3 = system: SK-OV-3
SN12C = system: SN12C
SNB-19 = system: SNB-19
SNB-75 = system: SNB-75
SNB-78 = system: SNB-78
SW-620 = system: SW-620
TK-10 = system: TK-10
U-251 = system: U-251
UACC-257 = system: UACC-257
UACC-62 = system: UACC-62
UO-31 = system: UO-31
XF498 = system: XF498
A498 = system: A498
HOP-92 = system: HOP-92
OVCAR-5 = system: OVCAR-5
RXF 631 = system: RXF 631
SR = system: SR

With `O=C1SC(c2ccccc2)(c2ccccc2)c2ccccc21` the GI50 (786-0) was > 100 µM (inactive), the GI50 (A549) was 50.9 µM (inactive) and the GI50 (ACHN) was 34.3 µM (inactive). The GI50 (CAKI-1) was > 100 µM (inactive), the GI50 (CCRF-CEM) was 94.6 µM (inactive) and the GI50 (COLO 205) was > 100 µM (inactive). The GI50 (DLD-1) was 52.8 µM (inactive), the GI50 (DMS-114) was 26 µM (inactive) and the GI50 (DMS-273) was > 100 µM (inactive). The GI50 (EKVX) was 63.5 µM (inactive), the GI50 (HCC 2998) was > 100 µM (inactive) and the GI50 (HCT-116) was > 100 µM (inactive). For the same compound, the GI50 (HCT-15) was greater than 100 µM, the GI50 (HL-60) was 41.3 µM (inactive) and the GI50 (HOP-18) was > 100 µM (inactive). For the same compound, the GI50 (HOP-62) was > 100 µM (inactive), the GI50 (HT-29) was 57.7 µM (inactive) and the GI50 (IGROV-1) was > 100 µM (inactive). For the same compound, the GI50 (K562) was 74.5 µM (inactive), the GI50 (KM-20L2) was 46.8 µM (inactive) and the GI50 (KM12) was 66.8 µM (inactive). The GI50 (LOX IMVI) was > 100 µM (inactive), the GI50 (LXFL 529) was > 100 µM (inactive) and the GI50 (M14) was 64.6 µM (inactive). The GI50 (M19-MEL) was > 100 µM (inactive), the GI50 (MOLT-4) was 82.8 µM (inactive) and the GI50 (Malme-3M) was > 100 µM (inactive). For the same compound, the GI50 (NCI-H226) was > 100 µM (inactive), the GI50 (NCI-H23) was > 100 µM (inactive) and the GI50 (NCI-H460) was 69.7 µM (inactive). For the same compound, the GI50 (NCI-H522) was 68.4 µM (inactive), the GI50 (OVCAR-3) was > 100 µM (inactive) and the GI50 (OVCAR-4) was 92.5 µM (inactive). For the same compound, the GI50 (OVCAR-8) was > 100 µM (inactive), the GI50 (RPMI-8226) was 45.5 µM (inactive) and the GI50 (RXF 393) was 44.1 µM (inactive). For the same compound, the GI50 (SF-268) was > 100 µM (inactive), the GI50 (SF-295) was > 100 µM (inactive) and the GI50 (SF-539) was > 100 µM (inactive). The GI50 (SK-MEL-28) was > 100 µM (inactive), the GI50 (SK-MEL-2) was > 100 µM (inactive) and the GI50 (SK-MEL-5) was 46.3 µM (inactive). For the same compound, the GI50 (SK-OV-3) was > 100 µM (inactive), the GI50 (SN12C) was > 100 µM (inactive) and the GI50 (SNB-19) was > 100 µM (inactive). For the same compound, the GI50 (SNB-75) was > 100 µM (inactive), the GI50 (SNB-78) was > 100 µM (inactive) and the GI50 (SW-620) was 71.6 µM (inactive). The GI50 (TK-10) was 88.3 µM (inactive), the GI50 (U-251) was > 100 µM (inactive) and the GI50 (UACC-257) was > 100 µM (inactive). For the same compound, the GI50 (UACC-62) was 68.1 µM (inactive), the GI50 (UO-31) was 56.2 µM (inactive) and the GI50 (XF498) was > 100 µM (inactive).
`CC(=O)OCC1OC(n2cnc3c(I)nc(I)nc32)C(OC(C)=O)C1OC(C)=O` (stereo not given) was tested, and the GI50 (786-0) was 14.3 µM (inactive), the GI50 (A498) was 22.2 µM (inactive) and the GI50 (A549) was 17.7 µM (inactive). The GI50 (ACHN) was 10 µM (inactive), the GI50 (CAKI-1) was 2.02 µM (inactive) and the GI50 (CCRF-CEM) was 3.8 µM (inactive). The GI50 (DLD-1) was 10.8 µM (inactive), the GI50 (DMS-114) was 4.21 µM (inactive) and the GI50 (DMS-273) was 6.84 µM (inactive). The GI50 (EKVX) was 18.5 µM (inactive), the GI50 (HCC 2998) was 5.21 µM (inactive) and the GI50 (HCT-116) was 4.91 µM (inactive). The GI50 (HCT-15) was 4.58 µM, the GI50 (HL-60) was 2.47 µM (inactive) and the GI50 (HOP-62) was 18.8 µM (inactive). The GI50 (HOP-92) was 3.18 µM (inactive), the GI50 (HT-29) was 6.4 µM (inactive) and the GI50 (IGROV-1) was 6.35 µM (inactive). The GI50 (K562) was 3.69 µM (inactive), the GI50 (KM-20L2) was 17.6 µM (inactive) and the GI50 (KM12) was 4.48 µM (inactive). For the same compound, the GI50 (LOX IMVI) was 14 µM (inactive), the GI50 (LXFL 529) was 13.4 µM (inactive) and the GI50 (M14) was 17.2 µM (inactive). The GI50 (M19-MEL) was 3.66 µM (inactive), the GI50 (MOLT-4) was 8.13 µM (inactive) and the GI50 (Malme-3M) was 18.7 µM (inactive). The GI50 (NCI-H226) was 19.4 µM (inactive), the GI50 (NCI-H23) was 4.66 µM (inactive) and the GI50 (NCI-H460) was 17.7 µM (inactive). For the same compound, the GI50 (NCI-H522) was 1.91 µM (inactive), the GI50 (OVCAR-3) was 7.55 µM (inactive) and the GI50 (OVCAR-4) was 4.71 µM (inactive). For the same compound, the GI50 (OVCAR-5) was 20.8 µM (inactive), the GI50 (OVCAR-8) was 10.3 µM (inactive) and the GI50 (RPMI-8226) was 10.9 µM (inactive). The GI50 (RXF 393) was 17.3 µM (inactive), the GI50 (RXF 631) was 15.5 µM (inactive) and the GI50 (SF-268) was 13.4 µM (inactive). The GI50 (SF-295) was 20.5 µM (inactive), the GI50 (SF-539) was 16.1 µM (inactive) and the GI50 (SK-MEL-28) was 14.9 µM (inactive). For the same compound, the GI50 (SK-MEL-2) was 17.1 µM (inactive), the GI50 (SK-MEL-5) was 13.3 µM (inactive) and the GI50 (SN12C) was 13.5 µM (inactive). The GI50 (SNB-19) was 12.5 µM (inactive), the GI50 (SNB-75) was 15.1 µM (inactive) and the GI50 (SR) was 3.13 µM (inactive). For the same compound, the GI50 (SW-620) was 13.8 µM (inactive), the GI50 (TK-10) was 19.3 µM (inactive) and the GI50 (U-251) was 10.4 µM (inactive). For the same compound, the GI50 (UACC-257) was 14.1 µM (inactive), the GI50 (UACC-62) was 13.6 µM (inactive) and the GI50 (UO-31) was 17.7 µM (inactive). The GI50 (XF498) was 20.9 µM (inactive).
With `O=C(C/C(CCC(=O)N(Cc1ccccc1)Cc1ccccc1)=N/Nc1ccc([N+](=O)[O-])cc1[N+](=O)[O-])c1ccccc1` the GI50 (786-0) was > 100 µM (inactive), the GI50 (A549) was 86.1 µM (inactive) and the GI50 (CCRF-CEM) was 35.9 µM (inactive). For the same compound, the GI50 (COLO 205) was > 100 µM (inactive), the GI50 (DLD-1) was 49.9 µM (inactive) and the GI50 (DMS-114) was > 100 µM (inactive). The GI50 (DMS-273) was > 100 µM (inactive), the GI50 (EKVX) was > 100 µM (inactive) and the GI50 (HCC 2998) was 74.5 µM (inactive). For the same compound, the GI50 (HCT-116) was > 100 µM (inactive), the GI50 (HCT-15) was 40.5 µM and the GI50 (HL-60) was 41.2 µM (inactive). For the same compound, the GI50 (HOP-18) was > 100 µM (inactive), the GI50 (HOP-62) was 70.8 µM (inactive) and the GI50 (HOP-92) was > 100 µM (inactive). For the same compound, the GI50 (HT-29) was 54.1 µM (inactive), the GI50 (IGROV-1) was > 100 µM (inactive) and the GI50 (K562) was 28.1 µM (inactive). For the same compound, the GI50 (KM-20L2) was 33.3 µM (inactive), the GI50 (KM12) was 77.1 µM (inactive) and the GI50 (LOX IMVI) was 25.4 µM (inactive). The GI50 (LXFL 529) was 25 µM (inactive), the GI50 (M14) was 68.9 µM (inactive) and the GI50 (M19-MEL) was 68.4 µM (inactive). For the same compound, the GI50 (MOLT-4) was 22.8 µM (inactive), the GI50 (Malme-3M) was > 100 µM (inactive) and the GI50 (NCI-H226) was > 100 µM (inactive). For the same compound, the GI50 (NCI-H23) was > 100 µM (inactive), the GI50 (NCI-H460) was 92.9 µM (inactive) and the GI50 (NCI-H522) was > 100 µM (inactive). The GI50 (OVCAR-3) was > 100 µM (inactive), the GI50 (OVCAR-4) was 60.8 µM (inactive) and the GI50 (OVCAR-5) was > 100 µM (inactive). The GI50 (OVCAR-8) was > 100 µM (inactive), the GI50 (RPMI-8226) was 81.1 µM (inactive) and the GI50 (SF-268) was 38.8 µM (inactive). For the same compound, the GI50 (SF-295) was > 100 µM (inactive), the GI50 (SF-539) was 54 µM (inactive) and the GI50 (SK-MEL-28) was > 100 µM (inactive). For the same compound, the GI50 (SK-MEL-2) was > 100 µM (inactive), the GI50 (SK-OV-3) was > 100 µM (inactive) and the GI50 (SNB-19) was > 100 µM (inactive). The GI50 (SNB-75) was > 100 µM (inactive), the GI50 (SNB-78) was > 100 µM (inactive) and the GI50 (SW-620) was 45.2 µM (inactive). For the same compound, the GI50 (TK-10) was > 100 µM (inactive), the GI50 (U-251) was > 100 µM (inactive) and the GI50 (UACC-257) was > 100 µM (inactive). For the same compound, the GI50 (UACC-62) was 25.9 µM (inactive), the GI50 (UO-31) was 35.2 µM (inactive) and the GI50 (XF498) was > 100 µM (inactive).

From ChEMBL document CHEMBL1201862, “PubChem BioAssay data set” (2004)
